The text below walks through data of patent publication US20170198011A1, “COMPOSITION FOR TREATING SEPSIS OR SEPTIC SHOCK COMPRISING THE PEPTIDE ORIGINATED FROM THE SMAD6” (Medpacto, Inc., priority 2011, published 2017).

For one experiment, the system named is IκBα. The experiment is described as follows: Immunoblot of LPS-induced IκBα degradation in stably transformed CMT-93 cells. The following applies: CMT-93 cells stably expressing the region. In kind it is cell-based. The text has this: To confirm the specific inhibitory activity of the Smad6 β-sheet small region against NF-κB signaling, the epithelial cell line CMT-93, which is susceptible to both TGF-β1 and LPS, was transformed to stably express the Smad6 β-sheet region.

For experiment [1], the system named is TGF-β1 signaling (Smad binding element). The experiment is described as follows: SBE-Luc reporter luciferase assay in CMT-93 cells. Format: cell-based. The following applies: TGF-β1 5 ng/ml 2 hrs. The text has this:
FIG. 2A is a graph showing results of the luciferase assay conducted with CMT-93 cells after transfection with SBE-Luc reporter plasmid plus an empty vector, a plasmid carrying Myc-Smad6 (400-441), or a plasmid carrying full-length Smad6,
FIG. 3D is a graph showing TGF-β-induced luciferase activity in CMT-93 cells transformed with an SBE-Luc reporter plasmid plus an empty vector or a Myc-Smad6 (422-441) plasmid, and
(§1) To examine whether the small region of Smad6 MH2 domain specifically suppresses LPS-induced NF-κB signaling, a 5×NF-κB-Luc reporter plasmid and an SBE (Smad binding element)-Luc reporter plasmid were separately transfected, together with a plasmid expressing a peptide from amino acid 400 to 441 of Smad6, into a CMT-93 epithelial cell line with the aid of Effectene (Qiagen). Following treatment with LPS (10 ng/ml) or TGF-β1 (5 ng/ml) for 2 hrs, the transfected cells were examined for luciferase activity. […] All experiments were independently repeated three times, while a full-length Smad6 plasmid was used as a control.

The next experiment deals with NF-κB. The experiment is described as follows: 5xNF-κB-Luc reporter luciferase assay in CMT-93 cells. In kind it is cell-based. The following applies: LPS 10 ng/ml 2 hrs.
Description: FIG. 2B is a graph showing results of the luciferase assay conducted with CMT-93 cells after transfection with a 5×NF-κB-Luc reporter plasmid plus an empty vector, a plasmid carrying Myc-Smad6 (400-441), or a plasmid carrying full-length Smad6, and
FIG. 3E is a graph showing TGF-β-induced luciferase activity in CMT-93 cells transformed with a 5×NF-κB-Luc reporter plasmid plus an empty vector or a Myc-Smad6 (422-441) plasmid;
as §1

The target of the next experiment is T1, Pellino-1N domain (Homo sapiens, UniProt Q96FA3).
T1 construct: expressed in transfected cells; host or cells: HEK293
T1 sequence (Q96FA3 1-140 limits assumed): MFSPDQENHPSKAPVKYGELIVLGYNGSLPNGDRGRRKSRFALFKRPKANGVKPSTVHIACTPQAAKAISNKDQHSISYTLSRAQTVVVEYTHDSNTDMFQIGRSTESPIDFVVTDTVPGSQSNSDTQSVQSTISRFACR
The experiment is described as follows: Co-immunoprecipitation of Smad6 MH2 mutants with HA-tagged Pellino-1N in HEK293 cells. Conditions: truncated mutants of Smad6 MH2 domain. In kind it is binding. The text has this:
To examine a minimum region of Smad6 that binds certainly to Pellino-1, which specifically interrupts NF-κB (κB nuclear factor kappa B) signaling, mutants were constructed by consecutively truncating the Smad6 MH2 domain, and analyzed using a co-immunoprecipitation assay.
[…] Plasmids carrying genes for different regions of Smad6 (Myc-Smad6 MH2, Myc-Smad6 346F, Myc-Smad6 371F, Myc-Smad6 385F, Myc-Smad6 464R, Myc-Smad6 441R, Myc-Smad6 410R, Myc-Smad6 385-441, Myc-Smad6 385-427, Myc-Smad6 385-418, Myc-Smad6 385-410, Myc-Smad6 400-441, Myc-Smad6 400-427, Myc-Smad6 400-418, Myc-Smad6 400-410, Myc-Smad6 422-441) were constructed by amplifying a full-length Smad6 cDNA by PCR and subcloning it into the BamHI/XhoI site of the pSC3+MT 6×Myc vector. Myc-Smad6 R429A, Myc-Smad6 P432A, Myc-Smad6 P433G, Myc-Smad6 Y435F, and Myc-Smad6 I437D were created using a QuikChange mutagenesis kit (Stratagene).
A co-immunoprecipitation assay was carried out as follows. […]

For a further experiment, the target named is T2, Pellino-1 (Homo sapiens, UniProt Q96FA3).
T2 construct: plus an HA-tagged full length Pellino-1 plasmid; expressed in transfected cells; host or cells: HEK293
T2 sequence (Q96FA3 1-418): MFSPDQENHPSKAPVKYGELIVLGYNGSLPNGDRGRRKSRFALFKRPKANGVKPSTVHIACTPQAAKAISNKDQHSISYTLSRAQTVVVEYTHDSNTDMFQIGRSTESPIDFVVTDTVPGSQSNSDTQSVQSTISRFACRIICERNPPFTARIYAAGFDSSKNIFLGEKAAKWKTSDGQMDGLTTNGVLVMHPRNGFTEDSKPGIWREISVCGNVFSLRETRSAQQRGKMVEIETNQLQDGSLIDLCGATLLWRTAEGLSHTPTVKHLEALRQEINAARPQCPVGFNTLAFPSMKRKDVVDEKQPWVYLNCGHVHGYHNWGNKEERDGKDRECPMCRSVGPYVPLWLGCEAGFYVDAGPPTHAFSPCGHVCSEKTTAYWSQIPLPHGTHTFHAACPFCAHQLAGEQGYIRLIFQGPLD
The experiment is described as follows: Co-immunoprecipitation of Smad6 truncated mutants with HA-tagged full length Pellino-1 in HEK293 cells. In kind it is binding. How it is done:
(§2) A co-immunoprecipitation assay was carried out as follows. For use as antibodies in co-immunoprecipitation, mouse anti-HA (F-7), mouse anti-c-Myc (9E10), rabbit anti-IκBα (C-21), mouse anti-IRAK1 (F-4), and mouse anti-TRAF6 (D-10) were purchased from Santa Cruz Biotechnology (USA), the antibodies rabbit anti-Pellino-1 and rabbit anti-IRAK4 from Imgenex, the antibodies rabbit anti-Smad6, rabbit anti-MyD88 (D80F5), rabbit anti-IKKα, rabbit anti-phospho-IKKα/β, rabbit anti-RIP1 (D94C12), rabbit anti-IKKi (anti-IKKE; D61F9), rabbit anti-TBK1 (D1B4), rabbit anti-GRK2 from Cell Signaling, and the antibody anti-β-actin from Sigma. Cells were lysed in a lysis buffer (PBS containing 0.5% Triton X-100, 20 mM HEPES (pH 7.4), 150 mM NaCl, 12.5 mM β-glycerol phosphate, 1.5 mM MgCl2, 10 mM NaF, 2 mM DTT, 1 mM Na3O4V, 2 mM EGTA, 1 mM PMSF and protease inhibitor mixture), and harvested by centrifuging 13,000 rpm for 10 min. For immunoprecipitation, the cell lysate were incubated at 4° C. for 12 hrs with protein-A agarose beads and the above-mentioned antibodies. Afterwards, the beads were washed three times with a lysis buffer, and treated with a 2× sample buffer to separate the co-immunoprecipitates therefrom. The co-immunoprecipitates were boiled, followed by SDS-PAGE. […]

For another experiment, the system named is IRAK1, TRAF6, MyD88. The experiment is described as follows: Co-immunoprecipitation of Smad6 (422-441) with other TLR4 signaling proteins in HEK293 cells. Format: binding. Conditions: Flag-IRAK1, Flag-TRAF6, Flag-MyD88. How it is done:
as §2

Where no end group is shown, it is not given here.

On to “Myc-Smad6 400-441: plasmid-expressed Myc-tagged peptide region from amino acid 400 to 441 of the Smad6 MH2 domain (VWAYNRGEHPIFVNSPTLDAPGGRALVVRKVPPGYSIKVFDF; also: Myc tag, plasmid-expressed; UniProt O43541 400-441, looked up, fragment)”, for which the “LPS-induced IκBα degradation detected” value with IκBα is on record as “not”. The TGF-β1-mediated reporter activity entry in experiment [1] is recorded as “did not suppress”. Further, in the experiment with NF-κB, the NF-κB-mediated reporter activity entry was “selectively suppressed”. Moreover, the “interaction with the Pellino-1N domain” value with Pellino-1N domain is “interact”.
Regarding “Myc-Smad6 422-441: plasmid-expressed Myc-tagged minimum region, amino acid 422 to 441 of Smad6 (GGRALVVRKVPPGYSIKVFD; also: Myc tag, plasmid-expressed)”, in experiment [1], the TGF-β1-mediated reporter activity entry is “did not suppressed”. For the same molecule, the “binding to Pellino-1” value with Pellino-1 is “sufficient and minimally required”. The “binding to other proteins involved in the TLR4 signaling pathway” value in the experiment on IRAK1, TRAF6, MyD88 is recorded as “not to other proteins involved in the TLR4 signaling pathway”. In addition, the NF-κB-mediated reporter activity entry in the experiment with NF-κB was “specifically suppressing”.

B1: full-length Smad6: full-length Smad6 plasmid used as a control (protein, UniProt O43541 1-496, looked up)
chain: MFRSKRSGLVRRLWRSRVVPDREEGGSGGGGGGDEDGSLGSRAEPAPRAREGGGCGRSEVRPVAPRRPRDAVGQRGAQGAGRRRRAGGPPRPMSEPGAGAGSSLLDVAEPGGPGWLPESDCETVTCCLFSERDAAGAPRDASDPLAGAALEPAGGGRSREARSRLLLLEQELKTVTYSLLKRLKERSLDTLLEAVESRGGVPGGCVLVPRADLRLGGQPAPPQLLLGRLFRWPDLQHAVELKPLCGCHSFAAAADGPTVCCNPYHFSRLCGPESPPPPYSRLSPRDEYKPLDLSDSTLSYTETEATNSLITAPGEFSDASMSPDATKPSHWCSVAYWEHRTRVGRLYAVYDQAVSIFYDLPQGSGFCLGQLNLEQRSESVRRTRSKIGFGILLSKEPDGVWAYNRGEHPIFVNSPTLDAPGGRALVVRKVPPGYSIKVFDFERSGLQHAPEPDAADGPYDPNSVRISFAKGWGPCYSRQFITSCPCWLEILLNNPR
modifications: full-length
notes: full-length Smad6 plasmid used as a control
For the molecule B1, in experiment [1], the TGF-β1-mediated reporter activity result is “suppressed”. Besides, the NF-κB-mediated reporter activity entry with NF-κB was “suppressed”.
